# Data taken from ChEMBL document CHEMBL5331124, “Degradation of Hexokinase 2 Blocks Glycolysis and Induces GSDME-Dependent Pyroptosis to Amplify Immunogenic Cell Death for Breast Cancer Therapy” (J Med Chem, 2023).
# Active and inactive are the calls of the source. No cut-off for these calls is given here.
# Legend:
# [1] = tested on: 4T1; experiment: Antitumor immunity against mouse 4T1 cells implanted in BALB/c mouse model assessed as increase in HMGB1 release in tumor; type: functional, cell-based
# [2] = tested on: 4T1; experiment: Induction of mitochondrial damage in mouse 4T1 cells assessed as reduction in ATP level at 20 uM measured for 36 hrs; type: functional, cell-based
# [3] = Toxicity in BALB/c mouse implanted with mouse 4T1 cells assessed as pathological changes in heart at 50 mg/kg, ip measured after 25 days in presence of cisplatin by Hematoxylin -eosin staining based analysis; type: organism-based; settings: in vivo, 600 h, time 25 day
# [4] = tested on: 4T1; experiment: Cytotoxicity against mouse 4T1 cells assessed as inhibition of cell growth at 1 to 100 uM incubated for 48 hrs by CCK-8 assay; type: functional, cell-based; settings: dose 1-100 µM
# [5] = tested on: 4T1; experiment: Induction of mitochondrial damage in mouse 4T1 cells assessed as increase in ROS generation at 20 uM measured for 36 hrs by Hoechst 33342 staining based confocal fluorescence microscopic analysis; type: functional, cell-based
# [6] = tested on: HGC-27; experiment: Potency index, ratio of IC50 for lonidamine to test compound IC50 for human HGC-27 cells assessed as cell growth inhibition measured for 72 hrs by MTT assay; type: functional
# [7] = Toxicity in BALB/c nude mouse xenografted with human MDA-MB-231 cells assessed as effect on mean corpuscular hemoglobin at 50 mg/kg, ip measured after 30 days by routine blood test; type: organism-based; settings: in vivo, 720 h, time 30 day
# [8] = tested on: 4T1; experiment: Antiproliferative activity against mouse 4T1 cells assessed as cell growth inhibition measured for 72 hrs by MTT assay; type: functional, cell-based; settings: 4T1, 72 h
# [9] = Toxicity in BALB/c mouse implanted with mouse 4T1 cells assessed as effect on platelet count at 50 mg/kg, ip measured after 25 days by routine blood test; type: organism-based; settings: in vivo, 600 h, time 25 day
# [10] = Toxicity in BALB/c mouse implanted with mouse 4T1 cells assessed as effect on hematocrit level at 50 mg/kg, ip measured after 25 days in presence of cisplatin by routine blood test; type: organism-based; settings: in vivo, 600 h, time 25 day
# [11] = Toxicity in BALB/c mouse implanted with mouse 4T1 cells assessed as effect on mean corpuscular hemoglobin at 50 mg/kg, ip measured after 25 days by routine blood test; type: organism-based; settings: in vivo, 600 h, time 25 day
# [12] = Toxicity in BALB/c mouse implanted with mouse 4T1 cells assessed as effect on corpuscular volume at 50 mg/kg, ip measured after 25 days by routine blood test; type: organism-based; settings: in vivo, 600 h, time 25 day
# [13] = Toxicity in BALB/c mouse implanted with mouse 4T1 cells assessed as effect on mean corpuscular hemoglobin at 50 mg/kg, ip measured after 25 days in presence of cisplatin by routine blood test; type: organism-based; settings: in vivo, 600 h, time 25 day
# [14] = tested on: PANC-1; experiment: Antiproliferative activity against human PANC-1 cells assessed as cell growth inhibition measured for 72 hrs by MTT assay; type: functional, cell-based; settings: PANC-1, 72 h
# [15] = tested on: MDA-MB-231; experiment: Antitumor activity against human MDA-MB-231 cells xenografted in BALB/c nude mouse assessed as increase in cleaved caspase-3 level at 50 mg/kg, ip measured after 28 days; type: functional, organism-based; settings: time 28.0 day
# [16] = molecular target: T1, Hexokinase-2 (Homo sapiens, UniProt P52789); experiment: (§1) Induction of HK2 degradation in human MDA-MB-231 cells measured for 36 hrs; type: cell-based
# T1 sequence (P52789 whole entry): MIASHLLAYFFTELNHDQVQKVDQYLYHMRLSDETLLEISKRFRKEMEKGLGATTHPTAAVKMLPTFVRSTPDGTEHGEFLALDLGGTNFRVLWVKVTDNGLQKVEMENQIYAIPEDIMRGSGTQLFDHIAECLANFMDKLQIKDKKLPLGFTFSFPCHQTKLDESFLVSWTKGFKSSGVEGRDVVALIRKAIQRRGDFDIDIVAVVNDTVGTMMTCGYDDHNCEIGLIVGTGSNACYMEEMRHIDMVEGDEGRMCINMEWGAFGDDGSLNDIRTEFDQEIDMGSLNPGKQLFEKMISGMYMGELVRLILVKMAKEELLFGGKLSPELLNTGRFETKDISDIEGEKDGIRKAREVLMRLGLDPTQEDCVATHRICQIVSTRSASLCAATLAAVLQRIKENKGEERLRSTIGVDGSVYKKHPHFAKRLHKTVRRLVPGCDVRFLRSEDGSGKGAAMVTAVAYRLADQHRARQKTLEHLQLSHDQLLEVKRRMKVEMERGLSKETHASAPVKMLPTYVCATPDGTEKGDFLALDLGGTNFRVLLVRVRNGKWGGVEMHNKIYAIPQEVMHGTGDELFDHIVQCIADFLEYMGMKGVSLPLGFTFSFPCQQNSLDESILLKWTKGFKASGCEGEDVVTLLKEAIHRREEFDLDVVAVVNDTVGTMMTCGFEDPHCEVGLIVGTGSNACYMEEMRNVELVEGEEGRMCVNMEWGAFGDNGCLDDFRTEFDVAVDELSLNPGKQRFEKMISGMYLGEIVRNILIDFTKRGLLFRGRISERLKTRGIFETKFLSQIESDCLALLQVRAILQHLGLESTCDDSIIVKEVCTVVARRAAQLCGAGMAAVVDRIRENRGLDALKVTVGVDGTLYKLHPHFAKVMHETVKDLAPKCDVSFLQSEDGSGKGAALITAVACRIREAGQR
# [17] = molecular target: T2, Hexokinase-2 (Homo sapiens) (UniProt P52789); experiment: as §1; type: cell-based
# T2 sequence (whole entry): T1 sequence (P52789 whole entry)
# [18] = tested on: MDA-MB-231; experiment: Antitumor activity against human MDA-MB-231 cells xenografted in BALB/c nude mouse assessed as reduction in HK2 expression level at 50 mg/kg, ip measured after 28 days; type: functional, organism-based; settings: time 28.0 day
# [19] = molecular target: Protein cereblon/Hexokinase-2 (Homo sapiens) (UniProt P52789+Q96SW2); experiment: PROTAC activity at CRBN/HK2 in human MDA-MB-231 cells assessed as […] ternary complex formation at 10 uM incubated for 24 hrs in presence of MG132; type: cell-based
# Sequence of Protein cereblon/Hexokinase-2 (Homo sapiens) (Q96SW2 whole entry, looked up, one chain of several): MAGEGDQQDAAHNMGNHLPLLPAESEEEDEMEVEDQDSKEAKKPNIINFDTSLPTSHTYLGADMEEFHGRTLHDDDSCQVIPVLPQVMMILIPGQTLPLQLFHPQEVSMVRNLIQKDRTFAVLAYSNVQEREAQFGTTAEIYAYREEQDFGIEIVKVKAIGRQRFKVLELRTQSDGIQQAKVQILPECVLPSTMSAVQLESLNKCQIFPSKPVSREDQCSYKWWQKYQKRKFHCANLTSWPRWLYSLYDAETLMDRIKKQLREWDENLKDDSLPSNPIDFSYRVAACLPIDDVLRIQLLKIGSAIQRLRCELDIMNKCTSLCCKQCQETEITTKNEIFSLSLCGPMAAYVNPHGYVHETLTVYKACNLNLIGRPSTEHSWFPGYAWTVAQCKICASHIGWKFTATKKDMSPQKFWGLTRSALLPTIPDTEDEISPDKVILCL
# [20] = Toxicity in BALB/c mouse implanted wth mouse 4T1 cells assessed as effect on body weight at 50 mg/kg, ip measured after 23 days; type: organism-based; settings: in vivo, 552 h, time 23 day
# [21] = tested on: HGC-27; experiment: Antiproliferative activity against human HGC-27 cells assessed as cell growth inhibition measured for 72 hrs by MTT assay; type: functional, cell-based; settings: HGC-27, 72 h
# [22] = tested on: 4T1; experiment: Induction of pyroptosis in mouse 4T1 cells assessed as dead cells at 20 uM incubated for 36 hrs by annexin V-FITC staining based flow cytometry analysis (Rvb =17.6 %); type: functional
# [23] = molecular target: Protein cereblon/Hexokinase-2 (Mus musculus) (UniProt O08528+Q8C7D2); experiment: PROTAC activity at CRBN/HK2 in mouse 4T1 cells assessed as HK2 degradation at 20 uM incubated for 36 hrs; type: cell-based
# Sequence of Protein cereblon/Hexokinase-2 (Mus musculus) (O08528 whole entry, looked up): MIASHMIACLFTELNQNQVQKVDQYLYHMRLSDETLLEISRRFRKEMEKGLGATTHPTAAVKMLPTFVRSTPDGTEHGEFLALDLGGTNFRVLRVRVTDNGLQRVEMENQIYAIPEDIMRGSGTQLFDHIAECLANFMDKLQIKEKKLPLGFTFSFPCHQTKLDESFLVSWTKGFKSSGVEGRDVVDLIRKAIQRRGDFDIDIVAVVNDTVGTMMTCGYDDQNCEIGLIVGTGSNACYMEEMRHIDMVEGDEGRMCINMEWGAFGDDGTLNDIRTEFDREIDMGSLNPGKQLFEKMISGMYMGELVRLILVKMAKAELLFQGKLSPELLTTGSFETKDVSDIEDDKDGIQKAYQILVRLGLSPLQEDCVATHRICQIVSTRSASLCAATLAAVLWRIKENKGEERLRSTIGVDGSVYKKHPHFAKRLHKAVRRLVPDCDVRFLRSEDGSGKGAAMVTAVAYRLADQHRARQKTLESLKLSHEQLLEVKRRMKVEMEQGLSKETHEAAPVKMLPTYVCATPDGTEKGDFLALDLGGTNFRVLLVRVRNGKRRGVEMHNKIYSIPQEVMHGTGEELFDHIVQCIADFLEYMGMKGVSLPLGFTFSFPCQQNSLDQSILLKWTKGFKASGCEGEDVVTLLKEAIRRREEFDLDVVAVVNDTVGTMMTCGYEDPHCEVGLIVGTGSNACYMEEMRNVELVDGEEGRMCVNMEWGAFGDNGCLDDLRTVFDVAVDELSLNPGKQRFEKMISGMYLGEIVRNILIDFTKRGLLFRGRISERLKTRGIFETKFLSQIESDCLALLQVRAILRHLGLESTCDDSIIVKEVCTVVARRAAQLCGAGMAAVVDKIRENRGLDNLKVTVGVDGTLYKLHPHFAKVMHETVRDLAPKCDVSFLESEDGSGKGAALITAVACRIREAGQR
# Sequence of Protein cereblon/Hexokinase-2 (Mus musculus) (Q8C7D2 whole entry, looked up): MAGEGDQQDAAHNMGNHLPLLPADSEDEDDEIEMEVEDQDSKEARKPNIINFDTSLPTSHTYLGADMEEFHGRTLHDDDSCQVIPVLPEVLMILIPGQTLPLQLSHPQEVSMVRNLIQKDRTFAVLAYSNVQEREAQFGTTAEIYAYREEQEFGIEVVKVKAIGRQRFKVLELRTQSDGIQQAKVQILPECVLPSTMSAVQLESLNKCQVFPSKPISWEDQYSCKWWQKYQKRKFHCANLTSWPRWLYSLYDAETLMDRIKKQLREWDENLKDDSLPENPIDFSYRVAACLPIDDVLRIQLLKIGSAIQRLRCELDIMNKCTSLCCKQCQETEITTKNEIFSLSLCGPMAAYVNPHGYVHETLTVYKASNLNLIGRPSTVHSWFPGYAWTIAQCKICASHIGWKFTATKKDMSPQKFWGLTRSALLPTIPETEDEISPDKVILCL
# [24] = tested on: 4T1; experiment: Induction of pyroptosis in mouse 4T1 cells assessed as viable cells at 20 uM incubated for 36 hrs by annexin V-FITC staining based flow cytometry analysis (reference value: 64 %); type: functional; settings: read-out: Activity
# [25] = tested on: 4T1; experiment: Antitumor immunity against mouse 4T1 cells implanted in BALB/c mouse model assessed as accumulation of CRT at 20 uM measured for 36 hrs by ELISA analysis; type: functional, cell-based
smiles,measurement,setting,value
O=C1CCC(N2C(=O)c3cccc(NCCCCNC(=O)c4nn(Cc5ccc(Cl)cc5Cl)c5ccccc45)c3C2=O)C(=O)N1 (stereo not given),Activity,[1],Active
same,Activity,[2],Active
same,Activity,[3],Non-Toxic
same,Activity,[4],Active
same,Activity,[5],Active
same,Ratio IC50,[6],12.7
same,Activity,[7],Non-Toxic
same,IC50,[8],5.08 µM
same,Activity,[9],Non-Toxic
same,Activity,[10],Non-Toxic
same,Activity,[11],Non-Toxic
same,Activity,[12],Non-Toxic
same,Activity,[13],Non-Toxic
same,IC50,[14],31.5 µM
same,Activity,[15],Active
same,DC50,[16],0.79 µM
same,Activity,[17],Dose-Dependent Effect
same,Activity,[18],Active
same,Activity,[19],inactive
same,Activity,[20],Non-Toxic
same,IC50,[21],6.11 µM
same,Activity,[22],9.44%
same,Activity,[23],Active
same,viability at 20 µM,[24],37.7%
same,Activity,[25],Active
